The source of these data is patent US20050271643A1, “Bacterial strains, compositions including same and probiotic use thereof” (priority 2003, published 2005).

The test system of the assay is B. licheniformis PA. As to the kind of experiment: Antibiogram by disc diffusion method. It is filed as cell-based, Bacillus licheniformis. Particulars: strain B. licheniformis PA. On the technique in general: A growth-free zone around the sample is the usual read-out of agar diffusion tests.
As for `CC(C)(O/N=C(\C(=O)N[C@@H]1C(=O)N2C(C(=O)[O-])=C(C[n+]3ccccc3)CS[C@H]12)c1csc(N)n1)C(=O)O` [Ceftazidim], the “Sensitivity or resistance of the strain to the antibiotic (in words)” value (from here on “Sensitivity or resistance of the strain”) is listed as “resistant”. For the compound `CC1(C)S[C@@H]2[C@H](NC(=O)Cc3ccccc3)C(=O)N2[C@H]1C(=O)O` [Benzylpenicillin], the “Sensitivity or resistance of the strain” value was “resistant”. `C[C@H]1[C@H](NC(=O)/C(=N\OC(C)(C)C(=O)O)c2csc(N)n2)C(=O)N1S(=O)(=O)O` [Aztreonam]: the “Sensitivity or resistance of the strain” value is “resistant”. For the compound Polymyxin E, the “Sensitivity or resistance of the strain” value is “resistant”. As for `Cc1onc(-c2ccccc2)c1C(=O)N[C@@H]1C(=O)N2[C@@H]1SC(C)(C)[C@@H]2C(=O)O` [Oxacillin], the “Sensitivity or resistance of the strain” value is on record as “resistant”.
